Legend:
human keratinocytes [1] = assay: Lactate dehydrogenase (LDH) release toxicity assay; assay type: cell-based; conditions: highest value of any culture treated with 5, 1.0, 0.2 or 0.04 uM
Procedure: To address the possibility that the inhibition of both PGE2 and LTB4 production by human keratinocytes treated with dehydroabietic acid methyl ester was […], a cell lactate dehydrogenase toxicity assay (Fisher Scientific) was performed. Briefly, lactate dehydrogenase (LDH) is found intracellularly and is released only in response to toxic stimuli and/or cell death. The amount of LDH released into the media of cultured cells is indicative of the degree of toxicity occurring in that culture. To do the assay, 48-well plates of cultured human keratinocytes (as described above for the PGE2 assay) were prepared and treated with the same concentrations of dehydroabietic acid methyl ester as described above for the PGE2 and LTB4 assays. One hour prior to harvesting culture media samples from wells treated with dehydroabietic acid methyl ester, duplicate wells were treated with a cell lysis buffer (Fisher Scientific) that caused 100% cell death to occur in the treated wells. After culture media samples were collected from all wells, the amount of LDH present in each was determined using a colorometric assay (Fisher Scientific). […] The amount of LDH released into the media of cultures treated with dehydroabietic acid methyl ester as well as vehicle-control media was determined using the colorometric assay and expressed as a percentage of that released by the 100% cell death wells.
To address the possibility that the inhibition of PGE2 production by human keratinocytes treated with 4-cumylphenol was due to toxicity, a cell lactate dehydrogenase toxicity assay (Fisher Scientific) was performed. […] After culture media samples were collected from all wells, the amount of LDH present in each was determined using a colorometric assay (Fisher Scientific). […] The amount of LDH released into the media of cultures treated with dehydroabietic acid methyl ester as well as vehicle-control media was determined using the colorometric assay and expressed as a percentage of that released by the 100% cell death wells. […]

[2] = test system: human keratinocyte PGE2 production; assay: Cell-based COX II assay: PGE2 production by cultured human foreskin keratinocytes (enzyme immunoassay); conditions: 5, 1.0, 0.2 and 0.04 uM, 24 hours, high calcium medium
Procedure: The ability of dehydroabietic acid methyl ester to inhibit the enzymatic activities of COX II and 5-LO was tested using primary cultures of human foreskin keratinocytes. Briefly, human keratinocytes were plated in 48-well plates (Nunc) at an initial density of 2.5×10^4 cells per well. The cultures were maintained in medium 154XP (Cascade Biologics) to which human keratinocyte growth supplement (Cascade Biologics) was added. Cultures were plated initially in medium 154XP containing 0.07 mM CaCl2. Upon reaching […] confluency, the media was exchanged with high calcium medium 154XP containing 1.2 mM CaCl2. Previous studies have shown that an increase in extracellular Ca^2+concentration induces the differentiation of cultured keratinocytes with a concomitant increase in the expression of COX II protein and COX II mRNA with no apparent effect on COX I expression (Leong, J., Hughes-Fulford, M., Rakhlin, A., Maclouf, J., and Goldyne, M., (1996), Exp. Cell Res., V224, p79). Twenty-four hours after switching to the high calcium media, duplicate wells were treated with dehydroabietic acid methyl ester serially diluted in ethanol to produce final concentrations of 5, 1.0, 0.2, and 0.04 uM. Companion cultures were treated with an identical dilution series of the Merck COX II-specific inhibitor DFU. Twenty-four hours later, samples were removed from each treated well (as well as vehicle-treated control wells) and the amount of PGE2 (a product of the COX II pathway) was quantified using a PGE2-specific enzyme immunoassay (Cayman Chemical). ), As was done with the previously described biochemical assays (COX I, COX II, 5-LO, and 15-LO), the percent inhibition was calculated based on a comparison between vehicle treated control cultures and cultures treated with dehydroabietic acid methyl ester or DFU (see Fractionation and Bioassay Analysis of Fractions Derived from Extract-8 above).
The ability of 4-cumylphenol to inhibit the enzymatic activity of COX II was tested using primary cultures of human foreskin keratinocytes. These cell studies were performed in an identical manner to the studies described in Example 6. […] Twenty-four hours later, samples were removed from each treated well (as well as vehicle-treated control wells) and the amount of PGE2 (a product of the COX II pathway) was quantified using a PGE2-specific enzyme immunoassay (Cayman Chemical). ), as was done with the previously described COX I, COX II, and 15-LO biochemical assays (see Example 2B). The percent inhibition was calculated based on a comparison between vehicle treated control cultures and cultures treated with 4-cumylphenol or DFU. […]
To evaluate the biological activities of 3-methoxy aniline, sufficient quantities of the compound were synthesized as detailed in Example 1C (above). […]

human keratinocytes [3] = assay: Microscopic examination of treated keratinocyte cultures; assay type: cell-based

Compound	percent toxicity (LDH released) versus the 100% cell death control (human keratinocytes [1])	inhibition of PGE2 production by cultured human keratinocytes [2]	toxicity when treated cultures were examined microscopically (human keratinocytes [3])
CC(C)(c1ccccc1)c1ccc(O)cc1 [4-Cumylphenol, 4-cumylphenol]	≤ 12.7%	inhibited the production of PGE2	lack of toxicity
COC(=O)[C@]1(C)CCC[C@]2(C)c3ccc(C(C)C)cc3CC[C@@H]12 [Dehydroabietic acid methyl ester, dehydroabietic acid methyl ester]	≤ 12%	inhibited the production of PGE2	lack of toxicity
